From paper PMC4490784, “Compensatory induction of MYC expression by sustained CDK9 inhibition via a BRD4-dependent mechanism” (eLife, 2015)

What was measured:
Experiment in all cases: KINOMEscan binding assay
ADCK4 = molecular target: T1, ADCK4 (Homo sapiens, UniProt Q96D53); conditions: read-out: % Retention on Solid Support
T1 construct: purchased DiscoveRx KINOMEscan
Description: (§1) As there are no commercial or in-house kinase assays available for CDK3, CDK5, CDK11 and CDK13, the inhibitory abilities of i-CDK9 toward these CDKs were thus evaluated in the DiscoveRx KINOMEscan assay, which is based on a proprietary active site-directed competition-binding platform ([Fabian et al., 2005]).
(§2) The inhibitory activity of i-CDK9 for CDK1-CycB (Upstate/Millipore), CDK2-CycA (Invitrogen), CDK4-CycD1 (Novartis), CDK7-CycH-MAT1 (Invitrogen), and CDK9-CycT1 (Invitrogen) was assessed in the AlphaScreen (PerkinElmer, Inc)-based kinase assay developed at Novartis. Briefly, each CDK–cyclin pair was pre-incubated with i-CDK9 for 15 min, followed by addition of kinase substrates (ELK for CDK1 and CDK2, RB for CDK4, and CDK7tide for CDK7 and CDK9). The mixture was incubated at room temperature for additional 4–5 hr. The reaction was stopped and read on Envision (PerkinElmer, Inc). Selectivity against a large panel of over 400 kinases was evaluated using the KINOMEscan platform (DiscoveRx, CA) employing a proprietary active site-directed competition binding assay ([Fabian et al., 2005]). The assay was conducted at two different concentrations of i-CDK9 (1 and 10 µM) by DiscoveRx.

ANKK1 = molecular target: T2, ANKK1 (Homo sapiens, UniProt Q8NFD2); conditions: read-out: % Retention on Solid Support
T2 construct: purchased DiscoveRx KINOMEscan
Description: as §1, §2

AURKA = molecular target: T3, AURKA (Homo sapiens, UniProt O14965); conditions: read-out: % Retention on Solid Support
T3 construct: purchased DiscoveRx KINOMEscan
T3 sequence (O14965 1-403): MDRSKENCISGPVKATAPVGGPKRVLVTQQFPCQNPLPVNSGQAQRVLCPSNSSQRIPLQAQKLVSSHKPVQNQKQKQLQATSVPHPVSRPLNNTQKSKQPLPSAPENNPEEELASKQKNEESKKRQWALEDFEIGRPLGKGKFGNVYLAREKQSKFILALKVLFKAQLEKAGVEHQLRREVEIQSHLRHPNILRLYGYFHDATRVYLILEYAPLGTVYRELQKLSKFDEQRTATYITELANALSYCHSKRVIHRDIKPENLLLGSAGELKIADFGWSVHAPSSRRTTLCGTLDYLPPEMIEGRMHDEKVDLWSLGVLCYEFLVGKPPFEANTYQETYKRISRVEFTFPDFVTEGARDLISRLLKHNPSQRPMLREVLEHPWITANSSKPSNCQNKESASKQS
Description: as §1, §2

CDC2L1 = molecular target: T4, CDC2L1 (Homo sapiens, UniProt P21127); conditions: read-out: % Retention on Solid Support
T4 construct: purchased DiscoveRx KINOMEscan
Description: as §1, §2

CSNK1G3 = molecular target: T5, CSNK1G3 (Homo sapiens, UniProt Q9Y6M4)
T5 construct: purchased DiscoveRx KINOMEscan
Description: as §1, §2

CSNK2A2 = molecular target: T6, CSNK2A2 (Homo sapiens, UniProt P19784); conditions: read-out: % Retention on Solid Support
T6 construct: purchased DiscoveRx KINOMEscan
Description: as §1, §2

EIF2AK1 = molecular target: T7, EIF2AK1 (Homo sapiens, UniProt Q9BQI3); conditions: 1 µM i-CDK9; read-out: % Retention on Solid Support
T7 construct: purchased DiscoveRx KINOMEscan
Description: as §1, §2

EPHA8 = molecular target: T8, EPHA8 (Homo sapiens, UniProt P29322); conditions: read-out: % Retention on Solid Support
T8 construct: purchased DiscoveRx KINOMEscan
Description: as §1, §2

ERK5 = molecular target: T9, ERK5 (Homo sapiens, UniProt Q13164); conditions: read-out: % Retention on Solid Support
T9 construct: purchased DiscoveRx KINOMEscan
Description: as §1, §2

FLT3(D835H) = molecular target: T10, FLT3(D835H) (Homo sapiens, UniProt P36888, D835H); conditions: read-out: % Retention on Solid Support
T10 construct: purchased DiscoveRx KINOMEscan
Description: as §1, §2

KIT(D816V) = molecular target: T11, KIT(D816V) (Homo sapiens, UniProt P10721, D816V); conditions: read-out: % Retention on Solid Support
T11 construct: purchased DiscoveRx KINOMEscan
Description: as §1, §2

MAP3K4 = molecular target: T12, MAP3K4 (Homo sapiens, UniProt Q9Y6R4); conditions: read-out: % Retention on Solid Support
T12 construct: purchased DiscoveRx KINOMEscan
Description: as §1, §2

MAP4K3 = molecular target: T13, MAP4K3 (Homo sapiens, UniProt Q8IVH8)
T13 construct: purchased DiscoveRx KINOMEscan
Description: as §1, §2

MST1R = molecular target: T14, MST1R (Homo sapiens, UniProt Q04912); conditions: read-out: % Retention on Solid Support
T14 construct: purchased DiscoveRx KINOMEscan
Description: as §1, §2

MUSK = molecular target: T15, MUSK (Homo sapiens, UniProt O15146); conditions: read-out: % Retention on Solid Support
T15 construct: purchased DiscoveRx KINOMEscan
Description: as §1, §2

PFPK5(P.falciparum) = molecular target: T16, PFPK5(P.falciparum) (Plasmodium falciparum, UniProt P61075); conditions: 1 µM i-CDK9; read-out: % Retention on Solid Support
T16 construct: purchased DiscoveRx KINOMEscan
Description: as §1, §2

PFTAIRE2 = molecular target: T17, PFTAIRE2 (Homo sapiens, UniProt Q96Q40); conditions: read-out: % Retention on Solid Support
T17 construct: purchased DiscoveRx KINOMEscan
Description: as §1, §2

PIP5K1A = molecular target: T18, PIP5K1A (Homo sapiens, UniProt Q99755); conditions: read-out: % Retention on Solid Support
T18 construct: purchased DiscoveRx KINOMEscan
Description: as §1, §2

PRKG2 = molecular target: T19, PRKG2 (Homo sapiens, UniProt Q13237); conditions: read-out: % Retention on Solid Support
T19 construct: purchased DiscoveRx KINOMEscan
Description: as §1, §2

QSK = molecular target: T20, QSK (Homo sapiens, UniProt Q9Y2K2)
T20 construct: purchased DiscoveRx KINOMEscan
Description: as §1, §2

RAF1 = molecular target: T21, RAF1 (Homo sapiens, UniProt P04049); conditions: read-out: % Retention on Solid Support
T21 construct: purchased DiscoveRx KINOMEscan
Description: as §1, §2

[1] = molecular target: T22, RSK1(Kin.Dom.1-N-terminal) (Homo sapiens, UniProt Q15418); conditions: read-out: % Retention on Solid Support
T22 construct: RSK1(Kin.Dom.1-N-terminal); purchased DiscoveRx KINOMEscan
Description: as §1, §2

SBK1 = molecular target: T23, SBK1 (Homo sapiens, UniProt Q52WX2); conditions: read-out: % Retention on Solid Support
T23 construct: purchased DiscoveRx KINOMEscan
Description: as §1, §2

TIE2 = molecular target: T24, TIE2 (Homo sapiens, UniProt Q02763); conditions: read-out: % Retention on Solid Support
T24 construct: purchased DiscoveRx KINOMEscan
Description: as §1, §2

TNK1 = molecular target: T25, TNK1 (Homo sapiens, UniProt Q13470); conditions: read-out: % Retention on Solid Support
T25 construct: purchased DiscoveRx KINOMEscan
Description: as §1, §2

T11 sequence (P10721 26-976 D816V): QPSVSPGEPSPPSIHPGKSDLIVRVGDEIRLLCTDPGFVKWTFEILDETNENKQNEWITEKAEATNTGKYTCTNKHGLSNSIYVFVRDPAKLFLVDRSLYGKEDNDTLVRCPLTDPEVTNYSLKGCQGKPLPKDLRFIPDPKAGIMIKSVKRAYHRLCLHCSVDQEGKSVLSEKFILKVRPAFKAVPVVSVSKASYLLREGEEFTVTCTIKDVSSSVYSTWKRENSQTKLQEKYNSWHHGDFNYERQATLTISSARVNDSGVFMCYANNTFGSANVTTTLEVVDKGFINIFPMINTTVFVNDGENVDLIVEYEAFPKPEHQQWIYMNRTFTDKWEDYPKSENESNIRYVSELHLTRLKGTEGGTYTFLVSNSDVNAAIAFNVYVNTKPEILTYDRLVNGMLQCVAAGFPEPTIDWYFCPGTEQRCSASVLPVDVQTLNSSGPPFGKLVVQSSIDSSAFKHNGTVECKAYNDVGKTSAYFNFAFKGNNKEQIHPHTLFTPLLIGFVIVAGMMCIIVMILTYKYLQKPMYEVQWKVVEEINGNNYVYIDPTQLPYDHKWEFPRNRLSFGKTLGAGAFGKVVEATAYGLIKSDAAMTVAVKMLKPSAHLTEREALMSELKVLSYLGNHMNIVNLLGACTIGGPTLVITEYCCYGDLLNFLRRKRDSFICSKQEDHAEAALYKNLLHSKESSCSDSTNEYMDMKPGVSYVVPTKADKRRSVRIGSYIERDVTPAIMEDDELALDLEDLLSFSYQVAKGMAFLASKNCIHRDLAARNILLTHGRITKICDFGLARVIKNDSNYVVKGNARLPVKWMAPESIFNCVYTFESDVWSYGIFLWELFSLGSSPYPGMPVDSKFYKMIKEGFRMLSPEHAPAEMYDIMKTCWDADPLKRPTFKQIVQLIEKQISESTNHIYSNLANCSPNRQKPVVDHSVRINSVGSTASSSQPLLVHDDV
T4 sequence (P21127 whole entry): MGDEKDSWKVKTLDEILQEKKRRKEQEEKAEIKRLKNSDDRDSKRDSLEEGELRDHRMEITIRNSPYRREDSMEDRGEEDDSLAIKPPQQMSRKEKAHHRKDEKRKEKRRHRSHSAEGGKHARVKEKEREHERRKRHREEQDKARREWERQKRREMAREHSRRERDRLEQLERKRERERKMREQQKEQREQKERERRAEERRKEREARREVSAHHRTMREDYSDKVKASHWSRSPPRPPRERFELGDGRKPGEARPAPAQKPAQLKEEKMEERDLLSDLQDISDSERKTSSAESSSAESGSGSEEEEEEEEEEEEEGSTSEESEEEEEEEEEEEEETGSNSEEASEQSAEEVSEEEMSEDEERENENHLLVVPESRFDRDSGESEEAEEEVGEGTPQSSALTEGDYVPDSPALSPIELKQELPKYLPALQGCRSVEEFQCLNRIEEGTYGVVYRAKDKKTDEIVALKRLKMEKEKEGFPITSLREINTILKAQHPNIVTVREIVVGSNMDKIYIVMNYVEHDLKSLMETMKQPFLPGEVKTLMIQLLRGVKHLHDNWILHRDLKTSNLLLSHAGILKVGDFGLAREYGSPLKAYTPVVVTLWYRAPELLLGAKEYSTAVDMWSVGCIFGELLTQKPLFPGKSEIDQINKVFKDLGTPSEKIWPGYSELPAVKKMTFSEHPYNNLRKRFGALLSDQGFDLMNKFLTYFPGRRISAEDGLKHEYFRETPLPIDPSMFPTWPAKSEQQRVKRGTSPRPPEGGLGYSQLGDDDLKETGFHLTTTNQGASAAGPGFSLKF
T8 sequence (P29322 28-1005): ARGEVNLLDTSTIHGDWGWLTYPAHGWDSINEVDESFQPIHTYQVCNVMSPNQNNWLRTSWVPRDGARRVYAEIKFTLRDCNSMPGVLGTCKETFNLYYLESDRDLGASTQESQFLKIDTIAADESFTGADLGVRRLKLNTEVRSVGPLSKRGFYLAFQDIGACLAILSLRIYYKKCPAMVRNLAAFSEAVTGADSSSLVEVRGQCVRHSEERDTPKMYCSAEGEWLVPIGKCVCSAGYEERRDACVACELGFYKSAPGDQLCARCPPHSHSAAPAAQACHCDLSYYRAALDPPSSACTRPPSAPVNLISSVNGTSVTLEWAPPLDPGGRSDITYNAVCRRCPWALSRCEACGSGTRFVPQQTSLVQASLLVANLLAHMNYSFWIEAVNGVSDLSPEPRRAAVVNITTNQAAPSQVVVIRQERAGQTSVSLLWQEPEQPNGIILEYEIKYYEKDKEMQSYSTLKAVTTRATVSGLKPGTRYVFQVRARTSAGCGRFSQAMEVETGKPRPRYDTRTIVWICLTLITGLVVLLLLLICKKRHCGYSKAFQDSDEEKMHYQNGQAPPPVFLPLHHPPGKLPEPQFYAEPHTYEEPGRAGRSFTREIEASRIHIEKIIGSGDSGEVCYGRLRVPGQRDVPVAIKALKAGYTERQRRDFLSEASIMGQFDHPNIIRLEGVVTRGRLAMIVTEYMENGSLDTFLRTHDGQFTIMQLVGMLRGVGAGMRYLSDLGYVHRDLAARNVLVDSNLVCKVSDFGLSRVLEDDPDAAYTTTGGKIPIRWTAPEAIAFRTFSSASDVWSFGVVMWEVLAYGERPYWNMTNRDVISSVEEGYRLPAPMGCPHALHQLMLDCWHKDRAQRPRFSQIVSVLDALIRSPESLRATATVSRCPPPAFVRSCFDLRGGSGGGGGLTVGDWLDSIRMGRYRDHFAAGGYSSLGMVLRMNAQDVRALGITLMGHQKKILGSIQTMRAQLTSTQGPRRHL
T14 sequence (Q04912 25-1400): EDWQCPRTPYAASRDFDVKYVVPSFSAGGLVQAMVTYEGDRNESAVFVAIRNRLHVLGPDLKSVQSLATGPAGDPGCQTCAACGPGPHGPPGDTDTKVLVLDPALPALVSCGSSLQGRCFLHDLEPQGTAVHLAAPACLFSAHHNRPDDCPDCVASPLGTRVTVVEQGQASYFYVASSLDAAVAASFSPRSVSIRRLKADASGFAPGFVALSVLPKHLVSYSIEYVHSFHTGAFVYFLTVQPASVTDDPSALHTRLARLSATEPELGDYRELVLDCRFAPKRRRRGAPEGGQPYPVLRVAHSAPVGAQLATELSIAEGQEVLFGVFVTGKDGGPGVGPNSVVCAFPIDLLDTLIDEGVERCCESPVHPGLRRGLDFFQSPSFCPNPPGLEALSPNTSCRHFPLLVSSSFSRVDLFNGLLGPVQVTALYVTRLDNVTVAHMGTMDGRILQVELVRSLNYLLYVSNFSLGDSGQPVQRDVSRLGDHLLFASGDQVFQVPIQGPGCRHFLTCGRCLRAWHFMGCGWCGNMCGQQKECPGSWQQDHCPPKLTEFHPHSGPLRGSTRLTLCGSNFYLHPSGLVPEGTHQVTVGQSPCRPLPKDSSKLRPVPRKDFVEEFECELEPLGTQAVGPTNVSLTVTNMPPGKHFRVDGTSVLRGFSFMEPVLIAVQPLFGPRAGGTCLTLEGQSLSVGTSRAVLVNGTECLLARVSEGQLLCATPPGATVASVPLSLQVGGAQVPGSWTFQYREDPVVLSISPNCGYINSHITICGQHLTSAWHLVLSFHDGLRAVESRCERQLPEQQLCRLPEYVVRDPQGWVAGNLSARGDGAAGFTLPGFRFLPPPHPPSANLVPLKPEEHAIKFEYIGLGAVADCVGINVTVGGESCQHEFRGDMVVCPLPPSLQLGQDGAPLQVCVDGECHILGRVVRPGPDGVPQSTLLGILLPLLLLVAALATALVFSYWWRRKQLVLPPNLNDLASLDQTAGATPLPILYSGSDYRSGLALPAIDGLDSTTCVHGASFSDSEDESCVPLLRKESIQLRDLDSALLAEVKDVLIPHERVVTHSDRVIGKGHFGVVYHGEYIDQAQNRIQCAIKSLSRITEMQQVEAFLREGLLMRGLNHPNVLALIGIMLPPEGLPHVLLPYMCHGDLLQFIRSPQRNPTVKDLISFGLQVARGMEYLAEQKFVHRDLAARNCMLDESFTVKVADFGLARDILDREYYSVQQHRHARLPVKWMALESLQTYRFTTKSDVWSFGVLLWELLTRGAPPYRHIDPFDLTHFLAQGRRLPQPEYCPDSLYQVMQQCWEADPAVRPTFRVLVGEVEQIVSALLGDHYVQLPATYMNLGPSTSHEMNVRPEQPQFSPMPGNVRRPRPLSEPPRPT
T9 sequence (Q13164 whole entry): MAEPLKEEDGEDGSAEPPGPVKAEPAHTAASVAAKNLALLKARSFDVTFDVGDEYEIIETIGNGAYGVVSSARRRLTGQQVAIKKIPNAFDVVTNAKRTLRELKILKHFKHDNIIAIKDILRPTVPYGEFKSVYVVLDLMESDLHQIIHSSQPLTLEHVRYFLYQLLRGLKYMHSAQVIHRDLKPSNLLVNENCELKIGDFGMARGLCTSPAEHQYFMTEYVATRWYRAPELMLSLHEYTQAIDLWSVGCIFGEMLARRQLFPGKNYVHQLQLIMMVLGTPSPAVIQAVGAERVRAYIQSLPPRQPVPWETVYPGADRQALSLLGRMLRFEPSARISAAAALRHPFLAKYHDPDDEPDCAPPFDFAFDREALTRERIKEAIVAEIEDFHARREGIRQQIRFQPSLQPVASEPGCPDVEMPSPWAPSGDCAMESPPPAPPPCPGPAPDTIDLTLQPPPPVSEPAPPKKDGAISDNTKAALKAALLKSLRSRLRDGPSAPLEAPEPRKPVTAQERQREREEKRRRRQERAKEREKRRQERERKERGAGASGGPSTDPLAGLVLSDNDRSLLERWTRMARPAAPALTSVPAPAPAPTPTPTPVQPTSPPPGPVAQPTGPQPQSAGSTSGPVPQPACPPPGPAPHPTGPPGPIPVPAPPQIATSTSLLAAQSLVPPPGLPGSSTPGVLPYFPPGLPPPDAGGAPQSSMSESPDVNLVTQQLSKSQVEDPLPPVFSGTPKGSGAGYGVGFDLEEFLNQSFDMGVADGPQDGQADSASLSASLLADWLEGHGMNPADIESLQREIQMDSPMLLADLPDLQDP

`N[C@H]1CC[C@H](Nc2cc(-c3cccc(NCc4cccc(F)c4)n3)c(Cl)cn2)CC1` [i-CDK9, N2′-(trans-4-aminocyclohexyl)-5′-chloro-N6-(3-fluorobenzyl)-2,4′-bipyridine-2′,6-diamine] showed a remaining binding at 1 µM (ADCK4; 1 µM i-CDK9) of 99%, a remaining binding at 10 µM (ADCK4; 10 µM i-CDK9) of 48% and a remaining binding at 1 µM (ANKK1; 1 µM i-CDK9) of 100%. The remaining binding at 10 µM (ANKK1; 10 µM i-CDK9) was 100%, the remaining binding at 1 µM (AURKA; 1 µM i-CDK9) was 92% and the remaining binding at 10 µM (AURKA; 10 µM i-CDK9) was 97%. The remaining binding at 1 µM (CDC2L1; 1 µM i-CDK9) was 92%, the remaining binding at 10 µM (CDC2L1; 10 µM i-CDK9) was 36% and the “% Retention on Solid Support” value (CSNK1G3; 1 µM i-CDK9) was 91%. The “% Retention on Solid Support” value (CSNK1G3; 10 µM i-CDK9) was 63%, the remaining binding at 1 µM (CSNK2A2; 1 µM i-CDK9) was 100% and the remaining binding at 10 µM (CSNK2A2; 10 µM i-CDK9) was 78%. It also gave a remaining binding at 1 µM (EIF2AK1) of 85%, a remaining binding at 1 µM (EPHA8; 1 µM i-CDK9) of 100% and a remaining binding at 10 µM (EPHA8; 10 µM i-CDK9) of 100%. The remaining binding at 1 µM (ERK5; 1 µM i-CDK9) was 100%, the remaining binding at 10 µM (ERK5; 10 µM i-CDK9) was 92% and the remaining binding at 1 µM (FLT3(D835H); 1 µM i-CDK9) was 100%. The remaining binding at 10 µM (FLT3(D835H); 10 µM i-CDK9) was 70%, the remaining binding at 1 µM (KIT(D816V); 1 µM i-CDK9) was 100% and the remaining binding at 10 µM (KIT(D816V); 10 µM i-CDK9) was 100%. The remaining binding at 1 µM (MAP3K4; 1 µM i-CDK9) was 87%, the remaining binding at 10 µM (MAP3K4; 10 µM i-CDK9) was 96% and the “% Retention on Solid Support” value (MAP4K3; 1 µM i-CDK9) was 85%. For the same molecule, the “% Retention on Solid Support” value (MAP4K3; 10 µM i-CDK9) was 70%, the remaining binding at 1 µM (MST1R; 1 µM i-CDK9) was 100% and the remaining binding at 10 µM (MST1R; 10 µM i-CDK9) was 100%. It also gave a remaining binding at 1 µM (MUSK; 1 µM i-CDK9) of 88%, a remaining binding at 10 µM (MUSK; 10 µM i-CDK9) of 100% and a remaining binding at 1 µM (PFPK5(P.falciparum)) of 100%. For the same molecule, the remaining binding at 1 µM (PFTAIRE2; 1 µM i-CDK9) was 72%, the remaining binding at 10 µM (PFTAIRE2; 10 µM i-CDK9) was 13% and the remaining binding at 1 µM (PIP5K1A; 1 µM i-CDK9) was 83%. For the same molecule, the remaining binding at 10 µM (PIP5K1A; 10 µM i-CDK9) was 99%, the remaining binding at 1 µM (PRKG2; 1 µM i-CDK9) was 100% and the remaining binding at 10 µM (PRKG2; 10 µM i-CDK9) was 100%. For the same molecule, the “% Retention on Solid Support” value (QSK; 1 µM i-CDK9) was 7.4%, the “% Retention on Solid Support” value (QSK; 10 µM i-CDK9) was 92% and the remaining binding at 1 µM (RAF1; 1 µM i-CDK9) was 100%. It also gave a remaining binding at 10 µM (RAF1; 10 µM i-CDK9) of 100%, a remaining binding at 1 µM ([1]; 1 µM i-CDK9) of 100% and a remaining binding at 10 µM ([1]; 10 µM i-CDK9) of 82%. The remaining binding at 1 µM (SBK1; 1 µM i-CDK9) was 100%, the remaining binding at 10 µM (SBK1; 10 µM i-CDK9) was 100% and the remaining binding at 1 µM (TIE2; 1 µM i-CDK9) was 82%. For the same molecule, the remaining binding at 10 µM (TIE2; 10 µM i-CDK9) was 100%, the remaining binding at 1 µM (TNK1; 1 µM i-CDK9) was 100% and the remaining binding at 10 µM (TNK1; 10 µM i-CDK9) was 65%.
